Assay results published in EP2468718A1, “Cabanillasin, a new antifungal compound, produced by entomopathogenic xenorhabdus cabanillasii” (Nosopharm, priority 2010, dated 2012).
Where two headings read alike, the source gives them in different places.

Legend:
[1] = system: Aspergilus fumigatus clinical strain; assay: Antifungal susceptibility testing, M38-A microdilution method (filamentous fungi); type: cell-based, Aspergillus fumigatus; settings: Aspergillus fumigatus, read-out: % of growth inhibition
Description: (§1) Cabanillasin activity was tested against different fungal human pathogens: ascomycetes yeasts (Candida albicans ATCC 90029, Candida Glabrata ATCC 90030, Candida krusei ATCC 6258 and Candida lusitaniae CBS 6936), basidiomycetes yeasts (Cryptococcus neoformans clinical strain), ascomycetes filamentous fungi (Aspergilus fumigatus clinical strain, Fusarium oxysporum clinical strain) and zygomycetes filamentous fungi (Rhizopus oryzae environemental strain) by the M38-A microdilution method with RPMI 1640 medium (RPMI 1640, MOPS 160 mM, glucose 18 g/L, pH 7) as recommended in the […]. The NCCLS M27-A2 broth microdilution method (NCCLS) was used when yeasts were tested.
(§2) Yeasts and filamentous inoculi were prepared on YPD medium (yeast extract 10 g/L, peptone 10 g/L and glucose 20 g/L) and Malt medium (malt extract 20 g/L) respectively. The densities of inoculi were adjusted by dilution in RPMI 1640 broth to a value ranged from 5.10^2 to 5.10^3 CFU/mL for yeasts isolates and 5.10^3 to 5.10^4 CFU/mL for filamentous fungi. Microdilution trays (96 U-bottom shaped) containing 190 µL fungal inoculum were added with 10 µL Cabanillasin solution (final concentration ranging from 50 to 0.098 mg/L for all fungi). After inoculation of the trays, all microdilution trays were incubated at 35°C in ambient air. The culture absorbance was measured at 600 nm, 24 h and 48 h after the beginning of the experiments for the yeasts and 48 h and 72 h after the beginning of the experiments for filamentous fungi and Cryptococcus neoformans. The activity results correspond to a percentage of growth inhibition ((1-Abs600 nm culture with Cabanillasin)/ Abs600 nm culture without Cabanillasin) x 100.
(§3) The IC50 value is the concentration at which inhibition of growth is equal to 50%. MICs for Candida species were determined at 24 h and 48 h and corresponded to 100% of growth inhibition. Amphotericin B was provided as standard (final concentration ranging from 16 to 0.03 mg/L for all fungi). Experiments were done in duplicate.

[2] = system: Rhizopus oryzae environemental strain; assay: as above; type: cell-based; settings: Rhizopus arrhizus, read-out: % of growth inhibition
Description: as §1, §2, §3

[3] = system: Fusarium oxysporum clinical strain; assay: as above; type: cell-based; settings: read-out: % of growth inhibition
Description: as §1, §2, §3

[4] = system: Candida lusitaniae CBS 6936; assay: Antifungal susceptibility testing, NCCLS M27-A2 broth microdilution (yeasts); type: cell-based; settings: Clavispora lusitaniae, CBS6936, read-out: % of growth inhibition
Description: as §1, §2, §3

Candida krusei ATCC 6258 = assay: as above; type: cell-based; settings: Pichia kudriavzevii, ATCC6258, read-out: % of growth inhibition
Description: as §1, §2, §3

C[C@@H]1[C@H](O)[C@@H](C)/C=C/C=C/C=C/C=C/C=C/C=C/C=C/[C@H](O[C@@H]2O[C@H](C)[C@@H](O)[C@H](N)[C@@H]2O)C[C@@H]2O[C@](O)(C[C@@H](O)C[C@@H](O)[C@H](O)CC[C@@H](O)C[C@@H](O)CC(=O)O[C@H]1C)C[C@H](O)[C@H]2C(=O)O [Amphotericin B, reference compound]
inhibition at 0.03 µg/mL ([1]; 48 h incubation): 3% | inhibition at 0.03 µg/mL ([1]; 72 h incubation): 0% | inhibition at 0.06 µg/mL ([1]; 48 h incubation): 33.5% | inhibition at 0.06 µg/mL ([1]; 72 h incubation): 0% | inhibition at 0.12 µg/mL ([1]; 48 h incubation): 37.2% | inhibition at 0.12 µg/mL ([1]; 72 h incubation): 41.5% | inhibition at 0.25 µg/mL ([1]; 48 h incubation): 100% | inhibition at 0.25 µg/mL ([1]; 72 h incubation): 85.2% | inhibition at 0.5 µg/mL ([1]; 48 h incubation): 100% | inhibition at 0.5 µg/mL ([1]; 72 h incubation): 100% | inhibition at 1 µg/mL ([1]; 48 h incubation): 100% | inhibition at 1 µg/mL ([1]; 72 h incubation): 100% | inhibition at 2 µg/mL ([1]; 48 h incubation): 100% | inhibition at 2 µg/mL ([1]; 72 h incubation): 100% | inhibition at 4 µg/mL ([1]; 48 h incubation): 100% | inhibition at 4 µg/mL ([1]; 72 h incubation): 100% | inhibition at 8 µg/mL ([1]; 48 h incubation): 100% | inhibition at 8 µg/mL ([1]; 72 h incubation): 100% | inhibition at 16 µg/mL ([1]; 48 h incubation): 100% | inhibition at 16 µg/mL ([1]; 72 h incubation): 100% | inhibition at 0.03 µg/mL ([2]; 48 h incubation): 26.7% | inhibition at 0.03 µg/mL ([2]; 72 h incubation): 0% | inhibition at 0.06 µg/mL ([2]; 48 h incubation): 35% | inhibition at 0.06 µg/mL ([2]; 72 h incubation): 0% | inhibition at 0.12 µg/mL ([2]; 48 h incubation): 22% | inhibition at 0.12 µg/mL ([2]; 72 h incubation): 0% | inhibition at 0.25 µg/mL ([2]; 48 h incubation): 43.9% | inhibition at 0.25 µg/mL ([2]; 72 h incubation): 12% | inhibition at 0.5 µg/mL ([2]; 48 h incubation): 47.4% | inhibition at 0.5 µg/mL ([2]; 72 h incubation): 62.1% | inhibition at 1 µg/mL ([2]; 48 h incubation): 92.2% | inhibition at 1 µg/mL ([2]; 72 h incubation): 66% | inhibition at 2 µg/mL ([2]; 48 h incubation): 100% | inhibition at 2 µg/mL ([2]; 72 h incubation): 77.4% | inhibition at 4 µg/mL ([2]; 48 h incubation): 100% | inhibition at 4 µg/mL ([2]; 72 h incubation): 100% | inhibition at 8 µg/mL ([2]; 48 h incubation): 100% | inhibition at 8 µg/mL ([2]; 72 h incubation): 100% | inhibition at 16 µg/mL ([2]; 48 h incubation): 100% | inhibition at 16 µg/mL ([2]; 72 h incubation): 100% | inhibition at 0.03 µg/mL ([3]; 48 h incubation): 14% | inhibition at 0.03 µg/mL ([3]; 72 h incubation): 0% | inhibition at 0.06 µg/mL ([3]; 48 h incubation): 26.3% | inhibition at 0.06 µg/mL ([3]; 72 h incubation): 0% | inhibition at 0.12 µg/mL ([3]; 48 h incubation): 39.8% | inhibition at 0.12 µg/mL ([3]; 72 h incubation): 24.6% | inhibition at 0.25 µg/mL ([3]; 48 h incubation): 65.2% | inhibition at 0.25 µg/mL ([3]; 72 h incubation): 49.8% | inhibition at 0.5 µg/mL ([3]; 48 h incubation): 100% | inhibition at 0.5 µg/mL ([3]; 72 h incubation): 90.2% | inhibition at 1 µg/mL ([3]; 48 h incubation): 100% | inhibition at 1 µg/mL ([3]; 72 h incubation): 100% | inhibition at 2 µg/mL ([3]; 48 h incubation): 100% | inhibition at 2 µg/mL ([3]; 72 h incubation): 100% | inhibition at 4 µg/mL ([3]; 48 h incubation): 100% | inhibition at 4 µg/mL ([3]; 72 h incubation): 100% | inhibition at 8 µg/mL ([3]; 48 h incubation): 100% | inhibition at 8 µg/mL ([3]; 72 h incubation): 100% | inhibition at 16 µg/mL ([3]; 48 h incubation): 100% | inhibition at 16 µg/mL ([3]; 72 h incubation): 100% | inhibition at 0.03 µg/mL ([4]; 24 h incubation): 19% | inhibition at 0.03 µg/mL ([4]; 48 h incubation): 11.2% | inhibition at 0.06 µg/mL ([4]; 24 h incubation): 63% | inhibition at 0.06 µg/mL ([4]; 48 h incubation): 45.4% | inhibition at 0.12 µg/mL ([4]; 24 h incubation): 100% | inhibition at 0.12 µg/mL ([4]; 48 h incubation): 84.5% | inhibition at 0.25 µg/mL ([4]; 24 h incubation): 100% | inhibition at 0.25 µg/mL ([4]; 48 h incubation): 100% | inhibition at 0.5 µg/mL ([4]; 24 h incubation): 100% | inhibition at 0.5 µg/mL ([4]; 48 h incubation): 100% | inhibition at 1 µg/mL ([4]; 24 h incubation): 100% | inhibition at 1 µg/mL ([4]; 48 h incubation): 100% | inhibition at 2 µg/mL ([4]; 24 h incubation): 100% | inhibition at 2 µg/mL ([4]; 48 h incubation): 100% | inhibition at 4 µg/mL ([4]; 24 h incubation): 100% | inhibition at 4 µg/mL ([4]; 48 h incubation): 100% | inhibition at 8 µg/mL ([4]; 24 h incubation): 100% | inhibition at 8 µg/mL ([4]; 48 h incubation): 100% | inhibition at 16 µg/mL ([4]; 24 h incubation): 100% | inhibition at 16 µg/mL ([4]; 48 h incubation): 100% | inhibition at 0.03 µg/mL (Candida krusei ATCC 6258; 24 h incubation): 0% | inhibition at 0.03 µg/mL (Candida krusei ATCC 6258; 48 h incubation): 25% | inhibition at 0.06 µg/mL (Candida krusei ATCC 6258; 24 h incubation): 48.4% | inhibition at 0.06 µg/mL (Candida krusei ATCC 6258; 48 h incubation): 48% | inhibition at 0.12 µg/mL (Candida krusei ATCC 6258; 24 h incubation): 100% | inhibition at 0.12 µg/mL (Candida krusei ATCC 6258; 48 h incubation): 76.7% | inhibition at 0.25 µg/mL (Candida krusei ATCC 6258; 24 h incubation): 100% | inhibition at 0.25 µg/mL (Candida krusei ATCC 6258; 48 h incubation): 100% | inhibition at 0.5 µg/mL (Candida krusei ATCC 6258; 24 h incubation): 100% | inhibition at 0.5 µg/mL (Candida krusei ATCC 6258; 48 h incubation): 100% | inhibition at 1 µg/mL (Candida krusei ATCC 6258; 24 h incubation): 100% | inhibition at 1 µg/mL (Candida krusei ATCC 6258; 48 h incubation): 100% | inhibition at 2 µg/mL (Candida krusei ATCC 6258; 24 h incubation): 100% | inhibition at 2 µg/mL (Candida krusei ATCC 6258; 48 h incubation): 100% | inhibition at 4 µg/mL (Candida krusei ATCC 6258; 24 h incubation): 100% | inhibition at 4 µg/mL (Candida krusei ATCC 6258; 48 h incubation): 100% | inhibition at 8 µg/mL (Candida krusei ATCC 6258; 24 h incubation): 100% | inhibition at 8 µg/mL (Candida krusei ATCC 6258; 48 h incubation): 100% | inhibition at 16 µg/mL (Candida krusei ATCC 6258; 24 h incubation): 100% | inhibition at 16 µg/mL (Candida krusei ATCC 6258; 48 h incubation): 100%
